Values joined by “and” are separate entries in the source; they are usually repeats but may differ in a detail not shown here. Equal values may be shown once. Inconclusive results and toxic doses are left out.
System: L1210 leukemia ip in BDF1 mice, survival T/C
Assay: NCI In Vivo Anticancer Drug Screen. Data for tumor model L1210 Leukemia (intraperitoneal) in B6D2F1 (BDF1) mice
Conditions: endpoint: mean survival time, higher = longer survival
In short: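 Antitumor effect is assessed in tumor-bearing animals. Survival in the compound arm is compared with a vehicle-dosed control arm and expressed as their quotient.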

[1] = dose: 100.0 mg/kg/injection, schedule: Q01DX009 (ip), vehicle: saline with Tween-80
[2] = dose: 100.0 mg/kg/injection, schedule: Q04DX003 (ip), vehicle: saline sonified
[3] = dose: 100.0 mg/kg/injection, schedule: Q01DX001 (ip), vehicle: saline
[4] = dose: 200.0 mg/kg/injection, schedule: Q01DX001 (ip), vehicle: saline
[5] = dose: 400.0 mg/kg/injection, schedule: Q01DX001 (ip), vehicle: saline

## O=c1[nH]c(=O)c2ccccc2o1
dose: 2.5 mg/kg/injection, schedule: Q04DX003 (ip), vehicle: saline
  T/C: 100 % of control
dose: 5.0 mg/kg/injection, schedule: Q04DX003 (ip), vehicle: saline
  T/C: 105 % of control
dose: 10.0 mg/kg/injection, schedule: Q04DX003 (ip), vehicle: saline
  T/C: 100 % of control
[1]
  T/C: 105 % of control

## c1cc2cnc3cccc4cnc(c1)c2c43
[2]
  T/C: 105 % of control
dose: 200.0 mg/kg/injection, schedule: Q04DX003 (ip), vehicle: saline sonified
  T/C: 95 % of control
dose: 400.0 mg/kg/injection, schedule: Q04DX003 (ip), vehicle: saline sonified
  T/C: 97 % of control

## CCCCP(=O)(CCCC)Oc1ccccc1F
[1]
  T/C: 90 % of control
dose: 200.0 mg/kg/injection, schedule: Q01DX009 (ip), vehicle: saline with Tween-80
  T/C: 86 % of control

## CCN(CC)CCN(CC(=O)O)CC(=O)O
[3]
  T/C: 108 % of control and 98 % of control
[4]
  T/C: 90 % of control and 102 % of control
[5]
  T/C: 96 % of control and 102 % of control

## Cc1c2cnccc2c(C)c2c1c1ccccc1n2CCN(C)C
dose: 12.5 mg/kg/injection, schedule: Q04DX003 (ip), vehicle: saline
  T/C: 105 % of control
dose: 25.0 mg/kg/injection, schedule: Q04DX003 (ip), vehicle: saline
  T/C: 97 % of control
dose: 50.0 mg/kg/injection, schedule: Q04DX003 (ip), vehicle: saline
  T/C: 102 % of control
dose: 300.0 mg/kg/injection, schedule: Q04DX003 (ip), vehicle: saline
  T/C: 113 % of control

## FC(F)(F)c1nc2nc(Cl)c(Cl)nc2[nH]1
dose: 6.25 mg/kg/injection, schedule: Q01DX009 (ip), vehicle: saline
  T/C: 99 % of control
dose: 12.5 mg/kg/injection, schedule: Q01DX009 (ip), vehicle: saline
  T/C: 94 % of control
dose: 25.0 mg/kg/injection, schedule: Q01DX001 (ip), vehicle: saline with Tween-80
  T/C: 106 % of control
dose: 25.0 mg/kg/injection, schedule: Q01DX009 (ip), vehicle: other
  T/C: 95 % of control
dose: 25.0 mg/kg/injection, schedule: Q01DX009 (ip), vehicle: saline
  T/C: 103 % of control
dose: 33.0 mg/kg/injection, schedule: Q01DX009 (ip), vehicle: other
  T/C: 113 % of control
dose: 44.0 mg/kg/injection, schedule: Q04DX003 (ip), vehicle: other
  T/C: 121 % of control
dose: 44.0 mg/kg/injection, schedule: Q04DX003 (ip), vehicle: saline sonified
  T/C: 94 % of control
dose: 44.0 mg/kg/injection, schedule: Q04DX003 (ip), vehicle: saline with Tween-80
  T/C: 102 % of control and 103 % of control
dose: 50.0 mg/kg/injection, schedule: Q01DX001 (ip), vehicle: saline with Tween-80
  T/C: 96 % of control
dose: 50.0 mg/kg/injection, schedule: Q01DX009 (ip), vehicle: saline
  T/C: 116 % of control
dose: 66.0 mg/kg/injection, schedule: Q04DX003 (ip), vehicle: saline sonified
  T/C: 122 % of control
dose: 66.0 mg/kg/injection, schedule: Q04DX003 (ip), vehicle: saline with Tween-80
  T/C: 109 % of control
dose: 100.0 mg/kg/injection, schedule: Q01DX001 (ip), vehicle: saline with Tween-80
  T/C: 110 % of control
dose: 100.0 mg/kg/injection, schedule: Q04DX003 (ip), vehicle: Klucel (hydroxypropylcellulose) (HPC)
  T/C: 154 % of control
dose: 100.0 mg/kg/injection, schedule: Q04DX003 (ip), vehicle: other
  T/C: 176 % of control
[2]
  T/C: 159 % of control
dose: 100.0 mg/kg/injection, schedule: Q04DX003 (ip), vehicle: saline with Tween-80
  T/C: 153 % of control and 156 % of control
dose: 150.0 mg/kg/injection, schedule: Q04DX003 (ip), vehicle: saline with Tween-80
  T/C: 102 % of control

## ClC1=C2C=CC=CC2C(Cl)(c2ccccc2)C2C1=C(Cl)c1ccccc1C2(Cl)c1ccccc1 (configuration not stated)
dose: 75.0 mg/kg/injection, schedule: Q01DX001 (ip), vehicle: saline
  T/C: 95 % of control
dose: 150.0 mg/kg/injection, schedule: Q01DX001 (ip), vehicle: saline
  T/C: 97 % of control
dose: 300.0 mg/kg/injection, schedule: Q01DX001 (ip), vehicle: saline
  T/C: 90 % of control

## CN(C)Cc1cc(Cl)cc(Cc2cc(Cl)cc(CN(C)C)c2O)c1O
[3]
  T/C: 100 % of control
dose: 100.0 mg/kg/injection, schedule: Q04DX003 (ip), vehicle: saline
  T/C: 93 % of control
[4]
  T/C: 94 % of control
dose: 200.0 mg/kg/injection, schedule: Q04DX003 (ip), vehicle: saline
  T/C: 88 % of control
[5]
  T/C: 96 % of control
dose: 400.0 mg/kg/injection, schedule: Q04DX003 (ip), vehicle: saline
  T/C: 95 % of control

## C/C=C\C=C\C(=O)O
dose: 100.0 mg/kg/injection, schedule: Q04DX002 (ip), vehicle: Klucel (hydroxypropylcellulose) (HPC)
  T/C: 97 % of control
dose: 200.0 mg/kg/injection, schedule: Q04DX002 (ip), vehicle: Klucel (hydroxypropylcellulose) (HPC)
  T/C: 94 % of control
dose: 400.0 mg/kg/injection, schedule: Q04DX002 (ip), vehicle: Klucel (hydroxypropylcellulose) (HPC)
  T/C: 103 % of control

From PubChem BioAssay AID248 (DTP/NCI, 2004)
